Tested on: patients with major depressive disorder (MDD)
Test: double-blind fixed dose comparison in major depressive disorder: safety and tolerability
Format: in vivo, human
Conditions: for Early Discontinuation: AEs / Early Discontinuation: All Reasons / Early Discontinuation: Insufficient Response / Incidence of TEAEs: Pts with at least 1 TEAE / Selected TEAEs: anorexia / Selected TEAEs: completed suicide* / Selected TEAEs: constipation / Selected TEAEs: decreased appetite / Selected TEAEs: diarrhea / Selected TEAEs: dizziness / Selected TEAEs: dry mouth / Selected TEAEs: early morn awakening / Selected TEAEs: ejaculation delayed / Selected TEAEs: erectile dysfunction / Selected TEAEs: hypersomnia / Selected TEAEs: increased appetite / Selected TEAEs: initial insomnia / Selected TEAEs: insomnia / Selected TEAEs: intentional self-injury / Selected TEAEs: lethargy / Selected TEAEs: libido decreased / Selected TEAEs: libido increased / Selected TEAEs: middle insomnia / Selected TEAEs: nausea / Selected TEAEs: orgasm abnormal / Selected TEAEs: sedation / Selected TEAEs: sleep disorder / Selected TEAEs: somnolence / Selected TEAEs: suicidal ideation / Selected TEAEs: vomiting / Selected TEAEs: weight decreased / Selected TEAEs: weight increased: number of patients (%), 8 weeks double-blind; for patients discontinued treatment early / patients exhibited at least one Treatment Emergent Adverse Event (TEAE): percent of patients, as given in the text
Description: The present study evaluates the efficacy, safety, and tolerability of escitalopram/bupropion combination treatment relative to its component monotherapies, and to placebo in patients with major depressive disorder (MDD).
The study consists of a one-week single-blind placebo lead-in period followed by an 8 week double-blind treatment period. Approximately 135 patients are randomized to each of four treatment groups (placebo, escitalopram oxalate 4 mg, bupropion hydrochloride 150 mg, or escitalopram oxalate 4 mg/bupropion hydrochloride 150 mg), for a total of […].
A randomized, double-blind, fixed-dose, multicenter, parallel-group study is conducted in outpatients with MDD. Patients who meet eligibility criteria at Screening (Visit 1) enter a one-week, single-blind, lead-in period of placebo treatment. Patients who complete the lead-in period and continue to meet all entry criteria at Baseline (Visit 2) are randomly assigned to 8 weeks of double-blind treatment with either placebo, escitalopram 4 mg, bupropion XL 150 mg, or escitalopram 4 mg/bupropion XL 150 mg combination. Assignment to a treatment group is according to a computer-generated randomization schedule.
Safety assessments are made of the patients by a physician at every visit and the evaluation documented. At each visit beginning with Visit 2, patients are queried regarding any adverse events (AEs) since the last visit. Study site personnel record all pertinent information in the electronic Case Report Forms (eCRF). Patients are asked to volunteer information concerning AEs with non-leading question such as “How do you feel?” AEs are collected at Visit 2 and all subsequent visits including early termination.
Dosing: For the single-blind lead-in period, patients are supplied with placebo capsules. For the double-blind period, identical appearing capsules are supplied which contain placebo, escitalopram 4 mg, or bupropion extended-release 150 mg. Medication are supplied in blister cards, each containing 20 capsules arranged in two rows of 10 capsules.
All study medication is administered as a single daily dose throughout the study, preferably at the same time each evening starting on the day the medication is dispensed to the patient. Dosing is subsequently be switched to morning, if preferred. At each visit, patients are instructed to take 2 capsules daily, one from Row 1 and one from Row 2. Patients are instructed to return all unused medication at each study visit. Patients who meet eligibility criteria at Visit 1 are dispensed one blister card containing 20 placebo capsules. Patients are instructed to take two capsules daily as a single dose beginning on the day study medication is dispensed. Patients who meet all eligibility criteria at Visit 2 are assigned a randomization number and dispensed the corresponding blister card for Week 1 of treatment as shown in the Figure below:
Patients are assigned the lowest randomization number available at the site. Patients are instructed to take two capsules daily as a single dose beginning on the day study medication is dispensed. In accordance with their assigned treatment group, patients receive placebo, 4 mg escitalopram, 150 mg bupropion, or 4 mg escitalopram and 150 mg bupropion per day.
At Visit 3, patients are dispensed one blister card for Week 2 of treatment. At Visits 4, 5, and 6, patients are dispensed two blister cards for Weeks 3-4, 5-6, and 7-8 of treatment, respectively. Patients are instructed to continue taking two capsules daily as a single dose. In accordance with their assigned treatment group, patients receive placebo, 4 mg escitalopram, 150 bupropion, or 4 mg escitalopram and 150 mg bupropion per day.

Row | SMILES | Early Discontinuation: AEs | Early Discontinuation: All Reasons | Early Discontinuation: Insufficient Response | Incidence of TEAEs: Pts with at least 1 TEAE | Selected TEAEs: anorexia | Selected TEAEs: completed suicide* [%] | Selected TEAEs: constipation | Selected TEAEs: decreased appetite | Selected TEAEs: diarrhea | Selected TEAEs: dizziness | Selected TEAEs: dry mouth | Selected TEAEs: early morn awakening | Selected TEAEs: ejaculation delayed | Selected TEAEs: erectile dysfunction [%] | Selected TEAEs: hypersomnia [%] | Selected TEAEs: increased appetite | Selected TEAEs: initial insomnia | Selected TEAEs: insomnia | Selected TEAEs: intentional self-injury [%] | Selected TEAEs: lethargy | further results
1 | CC(NC(C)(C)C)C(=O)c1cccc(Cl)c1 (racemic) [bupropion, (±)-1-(3-chlorophenyl)-2-[(1,1-dimethylethyl)amino]-1-propanone] | 10 (7.5%) | 29 (21.6%) | 4 (3.0%) | 101 (75.4%) | 0% | 0 | 6 (4.5%) | 5 (3.7%) | 5 (3.7%) | 2 (1.5%) | 13 (9.7%) | 2 (1.5%) | 0% | 0 | 0 | 3 (2.2%) | 1 (0.7%) | 14 (10.4%) | 0 | 2 (1.5%) | Selected TEAEs: libido decreased: 1 (0.7%); Selected TEAEs: libido increased: 0%; Selected TEAEs: middle insomnia: 3 (2.2%); Selected TEAEs: nausea: 5 (3.7%); Selected TEAEs: orgasm abnormal: 0%; Selected TEAEs: sedation: 1 (0.7%); Selected TEAEs: sleep disorder: 2 (1.5%); Selected TEAEs: somnolence: 2 (1.5%); Selected TEAEs: suicidal ideation: 1 (0.7%); Selected TEAEs: vomiting: 0%; Selected TEAEs: weight decreased: 4 (3.0%); Selected TEAEs: weight increased: 0%; patients discontinued treatment early: 21.6%; patients exhibited at least one Treatment Emergent Adverse Event (TEAE): 75.4%
2 | CN(C)CCC[C@@]1(c2ccc(F)cc2)OCc2cc(C#N)ccc21 [escitalopram, 1-[3-(dimethyl-amino)propyl]-1-(p-fluorophenyl)-5-phthalancarbonitrile] | 5 (3.8%) | 24 (18.3%) | 0% | 86 (65.6%) | 1 (0.8%) | 0 | 3 (2.3%) | 2 (1.5%) | 6 (4.6%) | 3 (2.3%) | 11 (8.4%) | 1 (0.8%) | 2 (3.9%) | 0 | 0 | 1 (0.8%) | 0% | 5 (3.8%) | 0 | 0% | Selected TEAEs: libido decreased: 3 (2.3%); Selected TEAEs: libido increased: 0%; Selected TEAEs: middle insomnia: 0%; Selected TEAEs: nausea: 10 (7.6%); Selected TEAEs: orgasm abnormal: 0%; Selected TEAEs: sedation: 1 (0.8%); Selected TEAEs: sleep disorder: 0%; Selected TEAEs: somnolence: 4 (3.1%); Selected TEAEs: suicidal ideation: 0%; Selected TEAEs: vomiting: 2 (1.5%); Selected TEAEs: weight decreased: 0%; Selected TEAEs: weight increased: 3 (2.3%); patients discontinued treatment early: 18.3%; patients exhibited at least one Treatment Emergent Adverse Event (TEAE): 65.6%
